Measured values from patent US20190375708A1 (VenatoRx Pharmaceuticals, Inc., priority 2018, published 2019).
Read-outs that look alike come from different tables or passages of the source.

How the values were obtained:
[1] = tested on: HBV replication in HepAD38 cells; assay: Anti-HBV replication assay in HepAD38 cells (QPCR of extracellular HBV DNA); type: cell-based, HBV (genotype D, serotype ayw); conditions: 7 days incubation, extracellular HBV DNA by QPCR, read-out: Anti-HBV EC50
In short: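 EC50 values reflect 50% reduction of extracellular HBV DNA, measured by QPCR after 7-day treatment of tetracycline-deprived HepAD38 cells with compound […].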

[2] = tested on: HepG2 cells; assay: In vitro cytotoxicity assay (MTT cell viability) in HepG2 cells; type: cell-based, human
In short: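 Viability measured by MTT conversion, absorbance at 492 nm, as percent of vehicle-treated wells. Compounds spanned 30 μM to 1.0 nM in half-log steps over a 7-day exposure of parental HepG2 cells; CC50 derived by 4-parameter curve fit.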

[3] = tested on: HBV; conditions: Phase 1b clinical trial, 600 mg bid dosing for 29 days; cited from earlier work
[4] = HepG2 cells, MTT cell viability, 7-day incubation, tested 30 μM to 1.0 nM, read-out: HepG2 CC50

Compound	EC50 [1] [µM]	CC50 [2, 4] [µM]	CC50 [2] [µM]	reduction in HBV DNA [3] [log 10]
Cc1cc(NC(=O)c2c(C)c(C(=O)C3=Nc4ccccc4B(O)O3)n(C)c2C)ccc1F [Example 256, N-(4-fluoro-3-methylphenyl)-5-(1-hydroxy-1H-enxo[c][1,5,2]oxazaborinine-3-carbonyl)-1,2,4-trimethyl-1H-pyrrole-3-carboxamide]	0.05 to 0.499	5 to 30		
Cc1cc(NC(=O)c2c(Cl)c(C(=O)C(=O)NC3(CO)CC3)n3c2CCCC3)ccc1F [Example 491, 2-chloro-N-(4-fluoro-3-methylphenyl)-3-(2-((1-(hydroxymethyl)cyclopropyrl)amino)-2-oxoacetyl)-5,6,7,8-tetrahydroindolizine-1-carboxamide]	< 0.05		> 30	
Cc1cc(NC(=O)c2c(C)c(C(=O)C(=O)N[C@@H]3[C@@H]4C[C@@H]5C[C@H]3C[C@@](O)(C5)C4)n(C)c2C)ccc1F [Example 74, N-(4-fluoro-3-methylphenyl)-5-(2-(((1R,2s,3S,5s,7s)-5-hydroxyadamantan-2-yl)amino)-2-oxoacetyl)-1,2,4-trimethyl-1H-pyrrole-3-carboxamide]	< 0.05	> 30		
Cc1c(C(=O)Nc2ccc(F)nc2)c(C)n(C)c1C(=O)C(=O)NC12C[C@@H]3C[C@@H](CC(O)(C3)C1)C2 [Example 16, N-(6-fluoropyridin-3-yl)-5-(2-(((1r,3s,5R,7S)-3-hydroxyadamantan-1-yl)amino)-2-oxoacetyl)-1,2,4-trimethyl-1H-pyrrole-3-carboxamide]	0.05 to 0.499	5 to 30		
O=C(Nc1cc(F)c(F)c(F)c1)c1ccc(F)c(S(=O)(=O)N2CCC(O)CC2)c1 [NVR 3-778]				−1.7
Cc1c(C(=O)Nc2ccc(F)nc2)c(C)n(C)c1C(=O)C(=O)N[C@]12C[C@@H]3C[C@@H](C[C@H]1C3)C2 [Example 19, N-(6-fluoropyridin-3-yl)-5-(2-(((2R,3as,5S,6as)-hexahydro-2,5-methanopentalen-3a(1H)-yl)amino)-2-oxoacetyl)-1,2,4-trimethyl-1H-pyrrole-3-carboxamide]	< 0.05	5 to 30		
N-(4-fluoro-3-methylphenyl)-1,2,4-trimethyl-5-(2-(((1s,4s)-4-morpholinocyclohexyl)amino)-2-oxoacetyl)-1H-pyrrole-3-carboxamide [Example 265]	0.05 to 0.499	> 30		
(S)-2-chloro-N-(4-fluoro-3- methylphenyl)-5-(2-((1- hydroxybutan-2-yl)amino)-2- oxoacetyl)-14-dimethyl-1H- pyrrole-3-carboxamide [Example 389]	> 1	5 to 30		
(S)-4-chloro-N-(4-fluoro-3- methylphenyl)-5-(2-((1- hydroxybutan-2-yl)amino0-2- oxoacetyl)-1,2-dimethyl-1H- pyrrole-3-carboxamide [Example 368]	0.05 to 0.499	> 30		
